# Reference: patent US20200131144A1, “AMINE OR (THIO)AMIDE CONTAINING LXR MODULATORS” (Phenex-FXR GmbH, priority 2017, published 2020)
# Experiments:
# LXRβ full length (FL) = target: T1, LXRβ full length (FL) (Homo sapiens, UniProt P55055, INS174Q); assay: LXR Gal4 reporter transient transfection assay, mammalian two-hybrid, FL-M2H Gal4β; format: cell-based; settings: HEK293 cells; inverse agonist unless *
# T1 construct: the full length (FL) proteins of LXRα (amino acids 1-447); NP005684; NP009052; expressed in transfected cells; host or cells: HEK293
# T1 sequence (P55055 with tags, fused parts or gaps INS174Q): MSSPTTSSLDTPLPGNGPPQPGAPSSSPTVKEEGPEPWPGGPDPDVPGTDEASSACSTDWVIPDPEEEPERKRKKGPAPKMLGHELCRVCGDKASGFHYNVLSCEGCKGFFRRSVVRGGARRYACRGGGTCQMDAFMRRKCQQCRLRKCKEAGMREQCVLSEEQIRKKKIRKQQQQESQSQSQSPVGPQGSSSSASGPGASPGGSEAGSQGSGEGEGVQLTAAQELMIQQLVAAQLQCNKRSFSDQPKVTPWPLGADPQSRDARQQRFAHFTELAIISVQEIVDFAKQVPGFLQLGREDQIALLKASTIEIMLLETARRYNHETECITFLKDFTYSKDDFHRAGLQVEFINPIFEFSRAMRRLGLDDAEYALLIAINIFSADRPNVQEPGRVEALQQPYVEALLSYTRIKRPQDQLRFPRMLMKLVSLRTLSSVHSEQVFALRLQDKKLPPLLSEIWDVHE
# Procedure, shortened: (§1)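 HEK293 cells transiently cotransfected with NFkB-AD fusions of full-length or LBD LXRα/β, GAL4-DBD fusions of SRC1 coactivator or NCoR corepressor domains, GAL4-driven firefly luciferase and Renilla control. Compound added 4 h post-transfection (≤0.2% DMSO), 16 h incubation; firefly and Renilla luminescence read sequentially.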
# [1] = target: T2, GST-LXRβ ligand-binding domain (Homo sapiens, UniProt P55055, INS174Q); assay: TR-FRETβ activity assay (NCoA3 coactivator peptide recruitment); format: biochemical; settings: 1 μM 24(S)-25-epoxycholesterol as prestimulating agonist; inverse agonist unless *
# T2 construct: amino acids 156-461; NP009052; made in house; host or cells: E. coli
# T2 sequence (P55055 with tags, fused parts or gaps INS174Q limits assumed): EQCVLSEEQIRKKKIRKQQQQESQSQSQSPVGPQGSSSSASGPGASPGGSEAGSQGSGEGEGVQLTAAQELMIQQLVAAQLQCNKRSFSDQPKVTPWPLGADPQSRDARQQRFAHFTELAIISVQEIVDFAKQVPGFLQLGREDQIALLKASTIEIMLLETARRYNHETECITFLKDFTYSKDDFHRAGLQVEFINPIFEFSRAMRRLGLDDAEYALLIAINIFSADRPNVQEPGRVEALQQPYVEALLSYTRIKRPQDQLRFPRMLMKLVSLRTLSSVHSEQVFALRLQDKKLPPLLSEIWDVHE
# Procedure, shortened: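 E. coli-expressed GST-LXRβ LBD (aa 156-461, 76 nM) with biotinylated NCoA3 peptide (400 nM), anti-GST-Tb cryptate donor and streptavidin-XL665 acceptor in 240 mM KCl, BSA, 0.002% Triton X-100. Equilibrated 1 h at 4° C; TR-FRET read at 615/665 nm, triplicates.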
# LXRα full length (FL) = target: T3, LXRα full length (FL) (Homo sapiens, UniProt Q13133); assay: LXR Gal4 reporter transient transfection assay, mammalian two-hybrid, FL-M2H Gal4α; format: cell-based; settings: HEK293 cells; inverse agonist unless *
# T3 construct: the full length (FL) proteins of LXRα (amino acids 1-447); NP005684; expressed in transfected cells; host or cells: HEK293
# T3 sequence (Q13133 1-447): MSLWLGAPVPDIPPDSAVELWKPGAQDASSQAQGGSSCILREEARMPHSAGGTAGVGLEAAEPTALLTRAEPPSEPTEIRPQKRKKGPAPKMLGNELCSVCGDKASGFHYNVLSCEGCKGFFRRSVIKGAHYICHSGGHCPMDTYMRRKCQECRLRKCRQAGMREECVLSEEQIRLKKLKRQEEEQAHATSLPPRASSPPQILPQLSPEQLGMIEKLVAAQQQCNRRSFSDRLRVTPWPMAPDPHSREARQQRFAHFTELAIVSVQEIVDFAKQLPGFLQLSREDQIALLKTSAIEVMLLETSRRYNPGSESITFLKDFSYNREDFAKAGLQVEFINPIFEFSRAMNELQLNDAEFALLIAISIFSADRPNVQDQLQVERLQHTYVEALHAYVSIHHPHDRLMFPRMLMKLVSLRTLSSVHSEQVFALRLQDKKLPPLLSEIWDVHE
# Procedure, shortened: as §1
EC50 (LXRβ full length (FL)),EC50 [1],EC50 (LXRα full length (FL)),FRETβ [1],Compound
< 100 nM,100 to 1000 nM,< 100 nM,–,"Cc1ccc2ccccc2c1C(=O)N(Cc1ccc(-c2cccc(C(C)(C)c3noc(=O)[nH]3)c2)cc1)Cc1ccc(C(F)(F)F)o1 [Example 29, 2-Methyl-N-((3′-(2-(5-oxo-4,5-dihydro-1,2,4-oxadiazol-3-yl)propan-2-yl)-[1,1′-biphenyl]-4-yl)methyl)-N-((5-(trifluoromethyl)furan-2-yl)methy)-1-naphthamide]"
100 to 1000 nM,1000 to 10000 nM,100 to 1000 nM,–,Cc1nc2cccnc2c(C(=O)N(Cc2ccc(C(F)(F)F)o2)Cc2ccc(-c3cccc(C(C)(C)C(=O)O)c3)cc2C#N)c1C [27/109]
< 100 nM,–,< 100 nM,C*,Cc1nc2cccnc2c(CN(Cc2ccc(-c3cccc(C(C)(C)C(=O)O)c3)cc2)Cc2ccc(C(F)(F)F)o2)c1C [27/133]
< 100 nM,100 to 1000 nM,< 100 nM,–,COc1cc(-c2cccc(C(C)(C)C(=O)O)c2)ccc1CN(Cc1ccc(C(F)(F)F)o1)C(=O)c1c(C)c(C)nc2cccnc12 [27/108]
< 100 nM,–,< 100 nM,C*,CC(C)(C(=O)O)c1cccc(-c2ccc(CN(Cc3ccc(C(F)(F)F)o3)C(=O)C3C(C)(C)CCC3(C)C)cc2)c1 [27/97]
100 to 1000 nM,100 to 1000 nM,100 to 1000 nM,–,Cc1nc2cccnc2c(C(=O)N(Cc2ccc(-c3cccc(C(C)(C)C(=O)O)c3)cc2)Cc2cncc(C(F)(F)F)c2)c1C [27/131]
< 100 nM,1000 to 10000 nM,100 to 1000 nM,–,Cc1cc(C(=O)N(Cc2ccc(-c3cccc(C(C)(C)C(=O)O)c3)cc2)Cc2ccc(C(F)(F)F)o2)c2ncccc2n1 [27/111]
100 to 1000 nM,100 to 1000 nM,< 100 nM,–,Cc1nc2cccnc2c(C(=O)N(Cc2ccc(-c3cccc(C(C)(C)C(=O)O)c3)cc2)Cc2ccc(C(F)F)o2)c1C [27/126]
< 100 nM,100 to 1000 nM,< 100 nM,–,CCc1nc2cnccc2c(C(=O)N(Cc2ccc(-c3cccc(C(C)(C)C(=O)O)c3)cc2)Cc2ccc(C(F)(F)F)o2)c1C [27/88]
100 to 1000 nM,1000 to 10000 nM,100 to 1000 nM,–,CCc1nc2ccncc2c(C(=O)N(Cc2ccc(-c3cccc(C(C)(C)C(=O)O)c3)cc2)Cc2ccc(C(F)(F)F)o2)c1C [27/89]
100 to 1000 nM,1000 to 10000 nM,1000 to 10000 nM,–,Cc1cc(C)c(CN(Cc2ccc(-c3cccc(S(=O)(=O)CC(=O)NS(C)(=O)=O)c3)cc2)Cc2ccc(C(F)(F)F)o2)c(C)c1 [Example 2]
< 100 nM,100 to 1000 nM,100 to 1000 nM,–,Cc1nc2ncccc2c(C(=O)N(Cc2ccc(-c3cccc(C(C)(C)C(=O)O)c3)cc2)Cc2ccc(C(F)(F)F)o2)c1C [27/92]
100 to 1000 nM,> 10000 nM,1000 to 10000 nM,–,Cc1ccc2ccccc2c1C(=O)N(Cc1ccc(C(F)(F)F)o1)Cc1ccc(-c2cccc(C(C)(C)C(=O)O)c2)cc1C(N)=O [Example 17]
< 100 nM,< 100 nM,< 100 nM,–,CC1=C(C(=O)N(Cc2ccc(-c3cccc(C(C)(C)C(=O)O)c3)cc2)Cc2ccc(C(F)(F)F)o2)c2ccccc2CC1 [27/95]
< 100 nM,100 to 1000 nM,< 100 nM,–,COc1cc(-c2cccc(C(C)(C)C(=O)O)c2)ccc1CN(Cc1ccc(C(F)(F)F)o1)C(=O)c1c(C)c(C)nc2ccccc12 [27/104]

# Further lines, the molecule ahead of its results:
Compound,EC50 (LXRβ full length (FL)),EC50 [1],EC50 (LXRα full length (FL)),FRETβ [1]
Cc1ccc2c(F)cccc2c1CN(Cc1ccc(-c2cccc(C(C)(C)C(=O)O)c2)cc1)Cc1ccc(C(F)(F)F)o1 [27/44],< 100 nM,100 to 1000 nM,< 100 nM,–
CC(C)(C(=O)O)c1cccc(-c2ccc(CN(Cc3ccc(C(F)(F)F)o3)C(=O)c3cccc4cnncc34)cc2)c1 [27/14],100 to 1000 nM,100 to 1000 nM,1000 to 10000 nM,–
Cc1ccc2ccccc2c1C(=O)N(Cc1ccc(C(F)(F)F)o1)C1COc2cc(-c3cccc(C(C)(C)C(=O)O)c3)ccc21 (stereo not drawn) [27/4],100 to 1000 nM,> 10000 nM,100 to 1000 nM,–
Cc1ccc2ccccc2c1CN(Cc1ccc(-c2cc(F)c(CO)c(S(=O)(=O)CC(=O)O)c2)cc1)Cc1ccc(C(F)(F)F)o1 [22/7],100 to 1000 nM,1000 to 10000 nM,100 to 1000 nM,–
Cc1ccc2ccccc2c1CN(Cc1ccc(-c2cccc(C(=O)C(=O)O)c2)cc1)Cc1ccc(C(F)(F)F)o1 [27/82],100 to 1000 nM,1000 to 10000 nM,100 to 1000 nM,–
Cc1cc(C)c(CN(Cc2ccc(-c3cccc(S(=O)(=O)CC(=O)O)c3)cc2)C(C)c2ccc(C(F)(F)F)o2)c(C)c1 (stereo not drawn) [7/12],100 to 1000 nM,1000 to 10000 nM,100 to 1000 nM,–
Cc1ccc2ccccc2c1C(=O)N(Cc1ccc(-c2cccc(C(C)(C)CC(=O)O)c2)cc1)Cc1ccc(C(F)(F)F)o1 [27/9],< 100 nM,100 to 1000 nM,< 100 nM,–
Cc1ccc2ccccc2c1C(=O)N(Cc1ccc(C(F)(F)F)o1)Cc1c(F)cc(-c2cccc(C(C)(C)C(=O)O)c2)cc1Cl [27/6],< 100 nM,< 100 nM,< 100 nM,–
Cc1ccc2ccc(C)c(CN(Cc3ccc(-c4cccc(C(C)(C)C(=O)O)c4)cc3)Cc3ccc(C(F)(F)F)o3)c2c1 [27/20],< 100 nM,100 to 1000 nM,< 100 nM,–
Cc1ccc2ccccc2c1C(=O)N(Cc1ccc(C(F)(F)F)o1)Cc1ccc(-c2cccc(S(=O)(=O)CC(=O)O)c2)cc1Cl [27/59],100 to 1000 nM,100 to 1000 nM,100 to 1000 nM,–
CCc1cc(C)cc(C)c1CN(Cc1ccc(-c2cccc(S(=O)(=O)CC(=O)O)c2)cc1)Cc1ccc(C(F)(F)F)o1 [27/35],100 to 1000 nM,1000 to 10000 nM,1000 to 10000 nM,–
COc1cc(-c2cc(F)c(CO)c(S(=O)(=O)CC(=O)O)c2)ccc1CN(Cc1ccc(C(F)(F)F)o1)Cc1c(C)ccc2ccccc12 [22/9],< 100 nM,1000 to 10000 nM,100 to 1000 nM,–
CN(C)c1ncc(CN(Cc2ccc(-c3cccc(C(C)(C)C(=O)O)c3)cc2)Cc2ccc(C(F)(F)F)o2)c2ccccc12 [27/18],< 100 nM,100 to 1000 nM,< 100 nM,–
CC12CC3(C)CC(C)(C1)CC(C(=O)N(Cc1ccc(-c4cccc(C(C)(C)C(=O)O)c4)cc1)Cc1ccc(C(F)(F)F)o1)(C2)C3 [27/51],100 to 1000 nM,–,100 to 1000 nM,B*
Cc1ccc2ccccc2c1C(=O)N(Cc1ccc(-c2cncc(C(C)(C)C(=O)O)c2)cc1)Cc1ccc(C(F)(F)F)o1 [27/37],< 100 nM,100 to 1000 nM,100 to 1000 nM,–
CCc1cc(-c2cncc(C(C)(C)C(=O)O)c2)ccc1CN(Cc1ccc(C(F)(F)F)o1)C(=O)c1c(C)ccc2ccccc12 [27/65],< 100 nM,100 to 1000 nM,< 100 nM,–
Cc1ccc2cnccc2c1C(=O)N(Cc1ccc(-c2cccc(C(C)(C)C(=O)O)c2)cc1)Cc1ccc(C(F)(F)F)o1 [27/86],< 100 nM,< 100 nM,< 100 nM,–
Cc1c(CN(Cc2ccc(-c3cccc(C(C)(C)C(=O)O)c3)cc2)Cc2ccc(C(F)(F)F)o2)c2ccccc2[nH]c1=O [27/22],< 100 nM,100 to 1000 nM,100 to 1000 nM,–
Cc1ccc2ccccc2c1C(=O)N(Cc1ccc(-c2cccc(C(C)(C)C(=O)O)c2)cc1)Cc1ccc(C(C)(C)C)o1 [27/1],< 100 nM,1000 to 10000 nM,100 to 1000 nM,–
